# Values of other authors, collected in patent US5574062A, “Coumarin derivative and use thereof” (Morinaga Milk Industry Co., Ltd., priority 1993, dated 1996).
# Assays:
# [1] = test system: 12-lipoxygenase; conditions: same concentration (10 uM), platelets; cited from earlier work
# [2] = test system: 5-lipoxygenase; conditions: 10 uM, cited from earlier work
structure (smiles),measurement,setting,value
"Oc1ccc(C2COc3cc(O)c(O)cc3C2)cc1 (stereo not drawn) [compound of 12), 4',6,7-trihydroxyisoflavan]",inhibition of formation of 12-lipoxygenase metabolic products,[1],25%
same,inhibition of formation of 5-lipoxygenase metabolic products,[2]; human peripheral leukocytes,completely
same,selectivity between 5-lipoxygenase and 12-lipoxygenase (in words),"[2]; literature, leukocytes vs. platelets",selective toward 5-lipoxygenase
